Reference: patent US20220023325A1, “SPECIFIC TLR4 ANTAGONIST IN THE TREATMENT OF MULTIPLE MYELOMA” (Etablissement Français du Sang, priority 2016, published 2022)
Values joined by “and” are separate entries in the source; they are usually repeats but may differ in a detail not shown here. Equal entries are not always repeated.

How the values were obtained:
MOLP-6 cells [1] = assay: MOLP-6 myeloma cells cultured alone, treated with C34; assay type: cell-based, human; conditions: MOLP-6 alone, C34 1 μM or 10 μM
Description: (§1) FIG. 9: Number of myeloma cells (MOLP-6)after culture of MOLP-6 alone untreated (NT) or treated with 1 μM or 10 μM of C34 (TLR4 antagonist), or in coculture with a stroma of MSCs from healthy or MM donors, untreated or treated with 1 μM or 10 μM C34.
(§2) To evaluate the role of TLR4 in the MSC/myeloma cell interaction, the inventors used a specific TLR4 antagonist, the C34 compound, marketed by Tocris, and a stroma-dependent myeloma cell line, the MOLP-6 line. Some studies have used stroma-independent myeloma cell lines such as MM1S or RPM18226. In this study, in order to approach the pathology and mimic real interactions between MSC and plasma cells, the inventors used a stroma-dependent cell line for its proliferation. Indeed, during MM (in the establishment and maintenance phases of the disease), myeloma cells strongly adhere to the MSCs of the stroma, which gives chemoresistance and survival signals favoring the evolution of MM.
(§3) Then they treated the healthy MSCs and MM with the C34 before and in co-culture with the MOLP-6. With the healthy stroma, the C34 antagonist (at 1 and 10 μM) has no effect on the growth support of MOLP-6, whereas with the stroma of MM, the TLR4 antagonist affects growth of MOLP-6 cells at the two doses used (33% decrease, FIG. 9).

MOLP-6 cells [2] = assay: MOLP-6 growth in coculture with stroma of healthy donor MSCs; assay type: cell-based, human
Description: as §1, §2
Then they treated the healthy MSCs and MM with the C34 before and in co-culture with the MOLP-6. With the healthy stroma, the C34 antagonist (at 1 and 10 μM) has no effect on the growth support of MOLP-6, whereas with the stroma of MM, the TLR4 antagonist affects growth of MOLP-6 cells at the two doses used (33% decrease, FIG. 9). […]
(§4) After 7 days of culture, they calculated the percent inhibition of plasmocyte growth (FIGS. 11 and 12).

MOLP-6 cells [3] = assay: MOLP-6 growth in coculture with stroma of MM patient MSCs; assay type: cell-based, human
Description: as §1, §2, §3
The inventors co-cultured MSCs from 4 healthy donors (H) or 5 patients suffering from MM (MYE) as well as stroma-dependent MOLP-6 plasma cells: • without treatment (NT) • in the presence of C34 alone at 1 μM (C34 1 μM), • in the presence of melphalan alone at 100 nM (Mel 100 nM), • in the presence of lenalidomide alone at 100 nM (Len 100 nM), • in the presence of a combination of C34 at 1 μM and melphalan at 100 nM (Mel 100 nM+C34 1 μM), or • in the presence of a combination of C34 at 1 μM and lenalidomide at 100 nM (Len 100 nM+C34 1 μM).
as §4

TLR4 [4] = biological target: T1, TLR4 (Homo sapiens, UniProt O00206+Q9Y6Y9); assay: Adhesion molecule expression on MM patient MSCs after TLR4 stimulation; assay type: cell-based
T1 construct: the TLR4 molecule is overexpressed both at the transcriptional level (mRNA) and at the protein level in the MM MSCs; endogenous in cells; host or cells: primary mesenchymal stromal cells (MSCs) of multiple myeloma patients
From the text: FIG. 3: Expression of different adhesion molecules involved in the interaction with MM plasma cells (CD49d, CD49e, CD54 and CD106) on the surface of MSCs of healthy subjects and patients with MM, stimulated or not with LPS. *p≤0.05**p≤0.01
FIG. 5: Expression of CD54 by MSCs from healthy donors or from patients with MM, whether stimulated or not with Hsp70. p*≤0.05
(§5) The inventors then studied the differential activation of TLR4 in the MSCs of healthy donors or MM patients. They analyzed the effect of stimulation by LPS, the TLR4 reference ligand widely described in the literature, on the expression of several adhesion molecules (CD49d/VLA-4, CD49e/VLA-5, CD54/ICAM-1 and CD106/VCAM-1) involved in the interaction between MSCs and malignant plasma cells. The level of expression (MFI: mean fluorescence intensity) of each molecule is shown in the histogram of FIG. 3.
In order to further investigate the role of TLR4 in the context of MM and to move closer to pathophysiology, the inventors stimulated MSCs with Hsp70, an endogenous ligand of TLR4 actively released in the MM microenvironment and secreted by the cell line of MM MOLP-6 (up to 200 ng/ml) (FIG. 4). In addition, this endogenous ligand has been described in the literature to have a chemoprotective role for MM malignant plasma cells (Nimmanapalli et al (2008) Br. Haematol 142: 551-561). […] Indeed Hsp-70 is a monomeric molecule and therefore induces a less important stimulation than LPS (multimeric). Nevertheless, once again, the MM MSCs respond better than the healthy MSCs.

TLR4 [5] = biological target: T1, TLR4; assay: Secretion of soluble factors (IGF-1, IL6) by MM patient MSCs after TLR4 stimulation; assay type: cell-based
From the text: (§6) FIG. 6: Secretion of IL6 by MSCs from healthy donors or from patients with MM, stimulated or not with LPS.
FIG. 7: Secretion of IL6 by MSCs of healthy donors or from MM patients, whether stimulated or not with Hsp70.
(§7) The inventors also evaluated the effect of TLR4 stimulation on the soluble IGF-1 and IL6 factors involved in the survival and proliferation of myeloma cells.

TLR4 [6] = biological target: T1, TLR4; assay: Adhesion molecule expression on healthy donor MSCs after TLR4 stimulation; assay type: cell-based
From the text: as §5, with “FIG. 3: Expression of different adhesion molecules involved in the interaction with MM plasma cells (CD49d, CD49e, CD54 and CD106) on the surface of MSCs of healthy subjects and patients with MM, stimulated or not with LPS. *p≤0.05**p≤0.01 FIG. 5: Expression of CD54 by MSCs from healthy donors or from patients with MM, whether stimulated or not with Hsp70. p*≤0.05 The inventors” for “The inventors”

TLR4 [7] = biological target: T1, TLR4; assay: Secretion of soluble factors (IGF-1, IL6) by healthy donor MSCs after TLR4 stimulation; assay type: cell-based
From the text: as §6, §7

[8] = MM MSCs, stimulation with Hsp70

T1 sequence (O00206 24-839): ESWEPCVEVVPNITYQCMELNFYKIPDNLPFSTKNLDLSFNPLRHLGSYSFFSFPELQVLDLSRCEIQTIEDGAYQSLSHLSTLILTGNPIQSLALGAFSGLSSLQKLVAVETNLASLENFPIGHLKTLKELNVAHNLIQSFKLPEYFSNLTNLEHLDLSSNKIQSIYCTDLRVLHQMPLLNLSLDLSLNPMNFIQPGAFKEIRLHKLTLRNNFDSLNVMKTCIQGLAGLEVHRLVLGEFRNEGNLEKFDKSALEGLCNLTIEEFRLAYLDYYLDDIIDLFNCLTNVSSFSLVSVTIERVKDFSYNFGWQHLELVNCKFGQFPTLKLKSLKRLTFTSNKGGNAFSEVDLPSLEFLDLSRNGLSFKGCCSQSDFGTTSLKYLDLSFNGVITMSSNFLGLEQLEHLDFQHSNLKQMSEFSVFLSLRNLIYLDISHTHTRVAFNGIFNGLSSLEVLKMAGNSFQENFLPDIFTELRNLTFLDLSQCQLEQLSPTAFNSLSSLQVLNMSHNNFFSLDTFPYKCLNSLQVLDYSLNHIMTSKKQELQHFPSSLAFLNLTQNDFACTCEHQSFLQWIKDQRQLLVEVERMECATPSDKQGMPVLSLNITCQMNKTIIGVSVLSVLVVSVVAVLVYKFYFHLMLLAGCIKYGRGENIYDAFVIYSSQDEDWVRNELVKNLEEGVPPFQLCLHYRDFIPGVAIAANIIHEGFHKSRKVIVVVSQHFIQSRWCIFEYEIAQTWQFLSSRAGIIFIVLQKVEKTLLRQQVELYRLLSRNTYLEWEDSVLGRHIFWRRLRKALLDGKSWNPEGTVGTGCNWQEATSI
T1 sequence (Q9Y6Y9 17-160 limits assumed): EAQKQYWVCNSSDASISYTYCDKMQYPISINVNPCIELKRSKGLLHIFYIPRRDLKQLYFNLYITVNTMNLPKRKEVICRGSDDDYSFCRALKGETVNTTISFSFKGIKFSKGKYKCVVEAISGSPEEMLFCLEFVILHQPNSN

## CC(=O)N[C@H]1[C@@H](OC(C)C)O[C@H](COC(C)=O)[C@@H](OC(C)=O)[C@@H]1OC(C)=O [C34]
MOLP-6 cells [1]
  direct effect on MOLP-6 cells (number of myeloma cells): did not directly affect
MOLP-6 cells [2]; healthy MSC/MOLP-6 cocultures, C34 1 μM + melphalan or lenalidomide 100 nM, 7 days
  effect on inhibition of plasmocyte growth in the presence of chemotherapeutic agents: no significant synergistic effect
MOLP-6 cells [2]; healthy stroma, C34 at 1 and 10 μM
  effect on the growth support of MOLP-6: no effect
MOLP-6 cells [3]; MM MSC coculture, C34 1 μM + lenalidomide 100 nM, 7 days
  effect on inhibition of proliferation of MM plasmocytes in combination with lenalidomide: synergistic effect
MOLP-6 cells [3]; MM MSC coculture, C34 1 μM + melphalan 100 nM, 7 days
  effect on inhibition of proliferation of MM plasmocytes in combination with melphalan: synergistic effect
MOLP-6 cells [3]; stroma of MM, C34 at the two doses used (1 and 10 μM)
  decrease of growth of MOLP-6 cells: 33%

## Hsp70: endogenous ligand of TLR4, chaperone heat shock protein 70
TLR4 [4]; [8]
  CD54 expression: significantly increased
TLR4 [5]; [8]
  IL6 secretion: increases

## lipopolysaccharide [LPS]
TLR4 [6]; healthy MSC, LPS stimulation
  expression of CD49e: significantly increased
  expression of CD106: no effect
  expression of CD49d: no effect
TLR4 [6]; healthy MSCs after LPS stimulation (basal 9.6)
  CD54 MFI: 148.7 and 149
TLR4 [4]; MM MSC, LPS stimulation
  expression of CD49e: significantly increased
  expression of CD106: no effect
  expression of CD49d: no effect
TLR4 [4]; MSCs of MM after LPS stimulation (basal 4.3)
  CD54 MFI: 215.9 and 216
TLR4 [7]; healthy MSCs after LPS stimulation (unstimulated 0.02)
  secretion of IL6: 0.1 pg/cell
TLR4 [7]; healthy MSCs, LPS stimulation
  IGF-1 secretion: no effect
TLR4 [5]; MM MSCs, LPS stimulation
  IGF-1 secretion: no effect
TLR4 [5]; MSCs of MM after LPS stimulation (unstimulated 0.08)
  secretion of IL6: 0.7 pg/cell
